Where two headings read alike, the source gives them in different places.
Legend:
Assay type in all cases: cell-based
[1] = test system: SKBr3 (estrogen receptor negative, Her2 over-expressing breast cancer cells); test: Anti-proliferation assay (MTS/PMS, 72 h), SKBr3; settings: Homo sapiens, SK-BR-3
[2] = test system: MCF-7 (estrogen receptor positive breast cancer cells); test: Anti-proliferation assay (MTS/PMS, 72 h), MCF-7; settings: Homo sapiens, MCF7
[3] = test system: SKBr3 and MCF-7 cell lines; test: Anti-proliferative activity against both breast cancer cell lines (results in words); settings: SKBr3 and MCF-7, Tables 1-5
Procedure: (§1) Cells were maintained in a 1:1 mixture of Advanced DMEM/F12 (Gibco) supplemented with non-essential amino acids, L-glutamine (2 mM), streptomycin (500 μg/mL), penicillin (100 units/mL), and 10% FBS. Cells were grown to confluence in a humidified atmosphere (37° C., 5% CO2), seeded (2000/well, 100 μL) in 96-well plates, and allowed to attach overnight. Compound at varying concentrations in DMSO (1% DMSO final concentration) was added, and cells were returned to the incubator for 72 h. At 72 h, the number of viable cells was determined using an MTS/PMS cell proliferation kit (Promega) per the manufacturer's instructions. Cells incubated in 1% DMSO were used at 100% proliferation, and values were adjusted accordingly. IC50 values were calculated from separate experiments performed in triplicate using GraphPad Prism.
The anti-proliferative activity of these compounds is evaluated against two breast cancer cell lines, SKBr3 (estrogen receptor negative, Her2 over-expressing breast cancer cells) and MCF-7 (estrogen receptor positive breast cancer cells).

[4] = test system: HCT-116; test: Anti-proliferation assay, HCT-116; settings: Homo sapiens, HCT-116; Table 6, substituted phenyl ureas
Procedure: as §1

[5] = test system: PC-3; test: Anti-proliferation assay, PC-3; settings: Homo sapiens, PC-3; Table 6, substituted phenyl ureas; Prostate Cancer
Procedure: as §1

[6] = test system: JMAR; test: Anti-proliferation assay, JMAR; settings: JMAR; Table 6, substituted phenyl ureas; HSNCC
Procedure: as §1

[7] = test system: MDAMB231; test: Anti-proliferation assay, MDAMB231; settings: Homo sapiens, MDA-MB-231; Table 6, substituted phenyl ureas; Tri-Neg
Procedure: as §1

[8] = test system: MRC5; test: Anti-proliferation assay, MRC5 (normal); settings: Homo sapiens, MRC5, Table 6, substituted phenyl ureas
Procedure: as §1

[9] = test system: DRO81-1; test: Anti-proliferation assay, DRO81-1; settings: Table 6, substituted phenyl ureas; Thyroid
Procedure: as §1

[10] = test system: A-549; test: Anti-proliferation assay, A-549; settings: Homo sapiens, A549; Table 6, substituted phenyl ureas
Procedure: as §1

[11] = test system: HMLE; test: Anti-proliferation assay, HMLE (normal); settings: HMLE, Table 6, substituted phenyl ureas
Procedure: as §1

[12] = test system: MDA1986; test: Anti-proliferation assay, MDA1986; settings: MDA1986; Table 6, substituted phenyl ureas; HSNCC
Procedure: as §1

[13] = Table 1, modified benzamide coumarin derivatives, read-out: SKBr3
[14] = Table 1, modified benzamide coumarin derivatives, read-out: MCF-7
[15] = Table 6, substituted phenyl ureas, Breast Cancer, read-out: IC50 SKBr3
[16] = Table 6, substituted phenyl ureas, Breast Cancer, read-out: IC50 MCF-3

Structure (SMILES)	IC50 [1, 13] [µM]	IC50 [2, 14] [µM]	anti-proliferative activity (in words) [3]	IC50 [1, 15] [µM]	IC50 [4] [µM]	IC50 [5] [µM]	IC50 [6] [µM]	IC50 [7] [µM]	IC50 [8] [µM]	IC50 [9] [µM]	IC50 [10] [µM]	IC50 [11] [µM]	IC50 [2, 16] [µM]	IC50 [12] [µM]	other results
Cc1c(OC2CCN(C)CC2)ccc2cc(NC(=O)c3ccc(O)c(CCC(C)C)c3)c(=O)oc12 [Compound 19, 4-hydroxy-3-isopentyl-N-(8-methyl-7-(1-methylpiperidin-4-yloxy)-2-oxo-2H-chromen-3-yl)benzamide]	0.6 ± 0.01	1.25 ± 0.39	no effect on inhibitory activity												
Cc1c(OC2CCN(C)CC2)ccc2cc(NC(=O)c3ccc4c(c3)CCC(C)(C)O4)c(=O)oc12 [Compound 20, 2,2-dimethyl-N-(8-methyl-7-(1-methylpiperidin-4-yloxy)-2-oxo-2H-chromen-3-yl)chroman-6-carboxamide]	3.46 ± 0.02	5.01 ± 0.01	decreased anti-proliferative activities												
C=CCc1cc(C(=O)Nc2cc3ccc(OC4CCN(C)CC4)c(C)c3oc2=O)ccc1OC(C)=O [Compound 21a, 2-allyl-4-((8-methyl-7-((1-methylpiperidin-4-yl)oxy)-2-oxo-2H-chromen-3-yl)carbamoyl)phenyl acetate]	2.26 ± 0.12	2 ± 0.18	decreased anti-proliferative activities												
CC(=O)Oc1ccc(C(=O)Nc2cc3ccc(OC4CCN(C)CC4)c(C)c3oc2=O)cc1 [Compound 21b, 4-(8-methyl-7-(1-methylpiperidin-4-yloxy)-2-oxo-2H-chromen-3-ylcarbamoyl)phenyl acetate]	1.67 ± 0.2	1.62 ± 0.04	decreased anti-proliferative activities												
CC(C)=CCc1cccc(C(=O)Nc2cc3ccc(OC4CCN(C)CC4)c(C)c3oc2=O)c1 [Compound 21c, N-(8-methyl-7-((1-methylpiperidin-4-yl)oxy)-2-oxo-2H-chromen-3-yl)-3-(3-methylbut-2-en-1-yl)benzamide]	1.68 ± 0.12	2.1 ± 0.08	two-fold lower activity												
Cc1c(OC2CCN(C)CC2)ccc2cc(NC(=O)c3ccccc3)c(=O)oc12 [Compound 21d, N-(8-methyl-7-(1-methylpiperidin-4-yloxy)-2-oxo-2H-chromen-3-yl)benzamide]	11.5 ± 2	11.7 ± 1	significantly decreased activity												IC50 ([1]; amide versus urea linkage, read-out: IC50 for SKBr3): 11.5 µM; IC50 ([2]; amide versus urea linkage, read-out: IC50 for MCF-3): 11.7 µM
CC(=O)Oc1ccc(C(=O)Nc2cc3ccc(OC4CCN(C)CC4)c(C)c3oc2=O)cc1Cl [Compound 21e, 2-chloro-4-(8-methyl-7-(1-methylpiperidin-4-yloxy)-2-oxo-2H-chromen-3-ylcarbamoyl)phenyl acetate]	3.5 ± 0.01	1.61 ± 0.16	diminished activity												
CC(C)=CCc1cc(C(=O)Nc2cc3ccc(OCCCN4CCN(C)CC4)c(C)c3oc2=O)ccc1O [Compound 62, 4-hydroxy-N-(8-methyl-7-(3-(4-methylpiperazin-1-yl)propoxy)-2-oxo-2H-chromen-3-yl)-3-(3-methylbut-2-en-1-yl)benzamide]			maintain activity comparable to the N-methylpiperidine derivative												
CC(C)=CCc1cc(C(=O)Nc2cc3ccc(OCCCN4CCOCC4)c(C)c3oc2=O)ccc1O [Compound 64, 4-hydroxy-N-(8-methyl-7-(3-morpholinopropoxy)-2-oxo-2H-chromen-3-yl)-3-(3-methylbut-2-en-1-yl)benzamide]			inactive at the highest concentrations tested												
CC(C)=CCc1cc(C(=O)Nc2cc3ccc(OCCCN4CCCCC4)c(C)c3oc2=O)ccc1O [Compound 65, 4-hydroxy-N-(8-methyl-2-oxo-7-(3-(piperidin-1-yl)propoxy)-2H-chromen-3-yl)-3-(3-methylbut-2-en-1-yl)benzamide]			inactive at the highest concentrations tested												
CC(C)=CCc1cc(C(=O)Nc2cc3ccc(OCCCN4CCCC4)c(C)c3oc2=O)ccc1O [Compound 66, 4-hydroxy-N-(8-methyl-2-oxo-7-(3-(pyrrolidin-1-yl)propoxy)-2H-chromen-3-yl)-3-(3-methylbut-2-en-1-yl)benzamide]			restores activity												
Cc1c(OC2CCN(C)CC2)ccc2cc(NC(=O)Nc3ccc(Cl)cc3)c(=O)oc12 [p-Cl, 1-(4-chlorophenyl)-3-(8-methyl-7-((1-methylpiperidin-4-yl)oxy)-2-oxo-2H-chromen-3-yl)urea]				0.17	0.42	2.3	6.1	> 25	> 25	15.8	0.16	> 25	0.36	> 25	
Cc1c(OC2CCN(C)CC2)ccc2cc(NC(=O)Nc3ccc(F)cc3)c(=O)oc12 [p-F, 1-(4-fluorophenyl)-3-(8-methyl-7-((1-methylpiperidin-4-yl)oxy)-2-oxo-2H-chromen-3-yl)urea]				0.48	0.061	3.32	8.6	0.05	> 25	19.9	1.06	> 25	0.96	0.01	
Cc1c(OC2CCN(C)CC2)ccc2cc(NC(=O)Nc3ccc([N+](=O)[O-])cc3)c(=O)oc12 [p-NO2, 1-(8-methyl-7-((1-methylpiperidin-4-yl)oxy)-2-oxo-2H-chromen-3-yl)-3-(4-nitrophenyl)urea]				0.58	2.83	1.06	7.3	2.1	> 25	11.5	0.95	> 25	4.24	6.6	
COc1ccc(NC(=O)Nc2cc3ccc(OC4CCN(C)CC4)c(C)c3oc2=O)cc1 [p-OCH3, 1-(4-methoxyphenyl)-3-(8-methyl-7-((1-methylpiperidin-4-yl)oxy)-2-oxo-2H-chromen-3-yl)urea]				0.86	0.25	0.52	8.4	2.4	2.7	29	1.09	0.74	0.96	2.6	
Cc1c(OC2CCN(C)CC2)ccc2cc(NC(=O)Nc3ccc(Oc4ccccc4)cc3)c(=O)oc12 [p-phenoxyl, 1-(8-methyl-7-((1-methylpiperidin-4-yl)oxy)-2-oxo-2H-chromen-3-yl)-3-(4-phenoxyphenyl)urea]				0.4	0.24	0.15	5.3	2.2	11.3	1.8	0.18	> 25	0.7	6	
Cc1c(OC2CCN(C)CC2)ccc2cc(NC(=O)Nc3ccc(-c4ccccc4)cc3)c(=O)oc12 [p-phenyl, 1-([1,1′-biphenyl]-4-yl)-3-(8-methyl-7-((1-methylpiperidin-4-yl)oxy)-2-oxo-2H-chromen-3-yl)urea]				0.36	0.15	0.052	0.93	0.37	2	0.27	0.066	3.6	0.7	0.85	

Reference: US10030006B2, “Coumarin based Hsp90 inhibitors with urea and ether substituents” (University of Kansas, priority 2013, dated 2018)
